# From US6803466B1, “HIV/FIV protease inhibitors having a small P3 residue” (The Scripps Research Institute, priority 1997, dated 2004)
# Assays:
# MT-2 cells = assay: Toxicity to host cells of the HIV assay; type: cell-based
# Description: The results from tissue culture assays against SIV (FIG. 14) and HIV (FIG. 14) were equally encouraging. […] The effectiveness of compound 1200 against HIV was measured by determining the percentage of viable cells remaining in culture over time in the presence and absence of drug (FIG. 14). In the control, HIV caused formation of multinucleated syncytia and 100% cell death by 9 days post infection. However, the cells cultured with 1 μg/ml (1.1 μM) or 5 μg/ml (5.5 μM) of inhibitor 1200 remained 100% viable after 1 month, identical to results obtained in the absence of virus infection. To test for virus in these cultures, supernatants were removed and added to 1×10^5 uninfected MT-2 cells after a 1:5 dilution with fresh CM. […]
# WEAU-1.6, a kind gift of George Shaw, University of Alabama (^18), a CXCR4 utilizing isolate, was used for all studies. […] For testiing of the antiviral efficacy of compound 1200 in MT-2 were assessed every day using a Olympus (model) inverted microscope equipped with phase contrast objectives. […] A total of 200 cells were counted in each well, and when syncytia were noted, cells were removed and tested for viability by using trypan-blue. Results are expressed as the average of viable cells.
# [1] = test system: FIV-PPR in feline T-cells (104-C1); assay: Ex vivo inhibitor analysis against FIV, pelletable reverse transcriptase in culture supernatant; type: cell-based, feline immunodeficiency virus; conditions: for FIV replication, pelletable reverse transcriptase: feline T-cells, 1 month
# Description: For FIV, the assays were performed in FIV-infected feline T-cells which were cultured in the presence of compound 1200 at different concentrations over the course of 1 month. Each data in FIG. 14 represents the amount of pelletable FIV reverse transcriptase in the culture supernatant. […] After one month, the drug-treated cultures were split and replated with and without compound 1200.
# The lymphocytic cell line 104-C1 (provided by C. Grant) was used as the target for infection. Cells were cultured in RPMI-1640 media supplemented with 10% FBS, 200 μM L-Glutamine, 1×MEM-Vitamins, 100 μM Sodium Pyruvate, 1×Non-Essential Amino Acids, 5.5×10−5M b-ME, 50 μg/ml Gentamicin, 50 U/ml human recombinant Interleukin-2 (provided by Hoffmann-LaRoche) and 7.5 μg/ml Concanavalin-A. For inhibitor assessment, 5×10^6 cells were infected with FIV-PPR (4×105 RT units) in 1 mL culture for 2 hr at 37° C. […] The cells were then washed with Hanks-buffered saline solution (HBSS) and resuspended in 10 ml of complete medium. The compound 1200 (10 mg/mL in DMSO) was then added to final concentrations of 0.1, 0.5, 1, and 5 μg/ml in duplicate. The cells were then incubated at 37° C. The culture supernatants were monitored for the presence of pelletable reverse transcriptase activity at weekly intervals, as follows. Cell-free culture supernatants (4 ml) were centrifuged at 60K for 30 min and the pellets were resuspended in 100 μl of lysis buffer containing 40 mM TrisHCl (pH 8.1), 360 mM NaCl, 20 mM DTT and 0.2% NP40. Twenty five μl of lysate was added to 25 μl of a mixture containing polyrA-pdT (Pharmacia, Piscataway, N.J.), MgCl2, and 3H-labeled deoxythymidine 5′-triphosphate (DuPont NEN, Boston, Mass.), and incubated for 1 hr at 37° C. The mixture was spotted on DE81 paper, air-dried, fixed in 0.1 M sodium pyrophosphate, washed three times in 0.3 M ammonium formate, and an additional time in 95% ethanol. The paper was then dried and counted on a scintillation counter.
# Cells were split 1:5 after the second, third, and fourth time points and fresh inhibitor was added at the appropriate concentration at each of these intervals. The data were expressed as values +/−standard deviation of the mean.
# FIV PR = biological target: T1, FIV PR (Feline immunodeficiency virus, UniProt P16088, C122K/G43I/N93T); assay: Inhibition of FIV PR (Ki, IC50); type: biochemical
# T1 construct: made in house; host or cells: E. coli BL21(DE3)
# Description: The solution was mixed and incubated for 10 minutes at 37° C. and the reaction quenched by addition of 8M guanidine HCl solution containing 0.2 M sodium acetate at pH 4.2 (100 μL). The cleavage products and substrate were separated by reverse phase HPLC. Absorbance was measured at 215 nm, peak areas were determined and percent conversion to product was calculated using relative peak areas. […] IC50 was determined as the inhibitor concentration at 50% inhibition. […] ([S]=substrate concentration in nmol). The data used was generated similarly to that for Ki with the following modifications. The substrate concentrations used were 560, 448, 336, 224, 111 and 56 μM, in the absence of inhibitor.
# Kinetic determinations for both HIV PR and FIV PRs were performed at 37° C. at pH 5.25 in duplicate using F-2000 fluorescence spectrophotometer (Hitachi).
# For FIV PRs, the kinetic data were determined under the similar reaction conditions as for HIV PR.
# I84V mutant = assay: Cell culture IC90, I84V mutant; type: cell-based, HIV; conditions: Human immunodeficiency virus 1, read-out: IC90 against the I84V mutant
smiles,measurement,setting,value
CC(C)[C@H](NC(=O)[C@H](C)NC(=O)OCc1ccccc1)C(=O)N[C@@H](Cc1ccccc1)[C@@H](O)[C@H](O)[C@H](Cc1ccccc1)NC(=O)[C@@H](NC(=O)[C@H](C)NC(=O)OCc1ccccc1)C(C)C [Compound 1b],toxicity to host cells,MT-2 cells,minimal toxicity
same,prevention of FIV infection in tissue culture (in words),[1],strongly inhibits
same,"FIV replication, pelletable reverse transcriptase",[1]; 1.0 μg/ml (1.1 μM),most effective
same,virus after drug-treated cultures were split and replated with and without drug,"[1]; after one month of treatment, two weeks in culture",No virus was detected
same,resistance development against the drug,[1]; eight weeks of continuous culture,No sign of resistance development
same,"FIV replication, pelletable reverse transcriptase",[1],markedly inhibit
same,Ki,FIV PR,41 nM
same,IC90,I84V mutant,400 nM
